Converted amounts (≈) assume the structure as drawn.
What was measured:
Acinetobacter baumannii [1] = assay: Antibacterial activity against Acinetobacter baumannii ATCC 17978 in low salt containing media by Mueller-Hinton broth based assay; assay type: functional
Pseudomonas aeruginosa [2] = assay: Potentiation of rifampicin-induced antibacterial activity against Pseudomonas aeruginosa PAO1 assessed as rifampicin MIC in low salt containing media by Mueller-Hinton broth based assay; assay type: functional
Acinetobacter baumannii [3] = assay: Potentiation of rifampicin-induced antibacterial activity against Acinetobacter baumannii ATCC 17978 assessed as rifampicin MIC in low salt containing media by Mueller-Hinton broth based assay; assay type: functional
Escherichia coli [4] = assay: Potentiation of rifampicin-induced antibacterial activity against Escherichia coli ATCC 25922 assessed as rifampicin MIC in low salt containing media by Mueller-Hinton broth based assay; assay type: functional
Pseudomonas aeruginosa [5] = assay: Potentiation of rifampicin-induced antibacterial activity against Pseudomonas aeruginosa PAO1 assessed as fold change in rifampicin MIC in low salt containing media by Mueller-Hinton broth based assay; assay type: functional
Acinetobacter baumannii [6] = assay: Potentiation of rifampicin-induced antibacterial activity against Acinetobacter baumannii ATCC 17978 assessed as fold change in rifampicin MIC in low salt containing media by Mueller-Hinton broth based assay; assay type: functional
Acinetobacter baumannii [7] = assay: Potentiation of rifampicin-induced antibacterial activity against multidrug resistant Acinetobacter baumannii clinical isolate 92247 assessed as fold change in rifampicin MIC at 1/4 MIC in low salt containing media by Mueller-Hinton broth based assay; assay type: functional
Acinetobacter baumannii [8] = assay: Potentiation of rifampicin-induced antibacterial activity against multidrug resistant Acinetobacter baumannii clinical isolate 110193 assessed as fold change in rifampicin MIC at 1/4 MIC in low salt containing media by Mueller-Hinton broth based assay; assay type: functional
Acinetobacter baumannii [9] = assay: Potentiation of rifampicin-induced antibacterial activity against multidrug resistant Acinetobacter baumannii LAC-4 assessed as fold change in rifampicin MIC at 1/4 MIC in low salt containing media by Mueller-Hinton broth based assay; assay type: functional
Escherichia coli [10] = assay: Potentiation of rifampicin-induced antibacterial activity against Escherichia coli clinical isolate 94393 assessed as fold change in rifampicin MIC at 1/4 MIC in low salt containing media by Mueller-Hinton broth based assay; assay type: functional
Escherichia coli [11] = assay: Potentiation of rifampicin-induced antibacterial activity against Escherichia coli clinical isolate 94474 assessed as fold change in rifampicin MIC at 1/4 MIC in low salt containing media by Mueller-Hinton broth based assay; assay type: functional
Escherichia coli [12] = assay: Potentiation of rifampicin-induced antibacterial activity against Escherichia coli clinical isolate 107115 assessed as fold change in rifampicin MIC at 1/4 MIC in low salt containing media by Mueller-Hinton broth based assay; assay type: functional
Pseudomonas aeruginosa [13] = assay: Antibacterial activity against Pseudomonas aeruginosa PAO1 in high concentration of Ca++ and Mg++ containing media by Mueller-Hinton broth based assay; assay type: functional
Pseudomonas aeruginosa [14] = assay: Antibacterial activity against Pseudomonas aeruginosa PA262 in high concentration of Ca++ and Mg++ containing media by Mueller-Hinton broth based assay; assay type: functional
Acinetobacter baumannii [15] = assay: Antibacterial activity against Acinetobacter baumannii ATCC 17978 in high concentration of Ca++ and Mg++ containing media by Mueller-Hinton broth based assay; assay type: functional
Escherichia coli [16] = assay: Antibacterial activity against Escherichia coli ATCC 25922 in high concentration of Ca++ and Mg++ containing media by Mueller-Hinton broth based assay; assay type: functional
Escherichia coli [17] = assay: Antibacterial activity against Escherichia coli […] in high concentration of Ca++ and Mg++ containing media by Mueller-Hinton broth based assay; assay type: functional
Pseudomonas aeruginosa [18] = assay: Potentiation of rifampicin-induced antibacterial activity against Pseudomonas aeruginosa PAO1 assessed as rifampicin MIC at 2 to 8 microg/ml in high concentration of Ca++ and Mg++ containing media by Mueller-Hinton broth based assay; assay type: functional; conditions: dose 2-8 µg/ml
Acinetobacter baumannii [19] = assay: Potentiation of rifampicin-induced antibacterial activity against Acinetobacter baumannii ATCC 17978 assessed as rifampicin MIC at 2 to 8 microg/ml in high concentration of Ca++ and Mg++ containing media by Mueller-Hinton broth based assay; assay type: functional; conditions: dose 2-8 µg/ml
Acinetobacter baumannii [20] = assay: Potentiation of rifampicin-induced antibacterial activity against Acinetobacter baumannii 92247 assessed as rifampicin MIC at 2 to 8 microg/ml in high concentration of Ca++ and Mg++ containing media by Mueller-Hinton broth based assay; assay type: functional; conditions: dose 2-8 µg/ml
Escherichia coli [21] = assay: Potentiation of rifampicin-induced antibacterial activity against Escherichia coli ATCC 25922 assessed as rifampicin MIC at 2 to 8 microg/ml in high concentration of Ca++ and Mg++ containing media by Mueller-Hinton broth based assay; assay type: functional; conditions: dose 2-8 µg/ml
Escherichia coli [22] = assay: Potentiation of rifampicin-induced antibacterial activity against Escherichia coli […] assessed as rifampicin MIC at 2 to 8 microg/ml in high concentration of Ca++ and Mg++ containing media by Mueller-Hinton broth based assay; assay type: functional; conditions: dose 2-8 µg/ml
Pseudomonas aeruginosa [23] = assay: Potentiation of rifampicin-induced antibacterial activity against Pseudomonas aeruginosa PA262 assessed as fold change in rifampicin MIC at 2 to 8 microg/ml in high concentration of Ca++ and Mg++ containing media by Mueller-Hinton broth based assay; assay type: functional; conditions: dose 2-8 µg/ml
Acinetobacter baumannii [24] = assay: Potentiation of rifampicin-induced antibacterial activity against Acinetobacter baumannii ATCC 17978 assessed as fold change in rifampicin MIC at 2 to 8 microg/ml in high concentration of Ca++ and Mg++ containing media by Mueller-Hinton broth based assay; assay type: functional; conditions: dose 2-8 µg/ml
Acinetobacter baumannii [25] = assay: Potentiation of rifampicin-induced antibacterial activity against Acinetobacter baumannii 92247 assessed as fold change in rifampicin MIC at 2 to 8 microg/ml in high concentration of Ca++ and Mg++ containing media by Mueller-Hinton broth based assay; assay type: functional; conditions: dose 2-8 µg/ml
Acinetobacter baumannii [26] = assay: Potentiation of rifampicin-induced antibacterial activity against Acinetobacter baumannii 92247 assessed as rifampicin MIC at 16 microg/ml in high concentration of Ca++ and Mg++ containing media by Mueller-Hinton broth based assay; assay type: functional; conditions: dose 16 µg/ml
Escherichia coli [27] = assay: Potentiation of rifampicin-induced antibacterial activity against Escherichia coli ATCC 25922 assessed as rifampicin MIC at 16 microg/ml in high concentration of Ca++ and Mg++ containing media by Mueller-Hinton broth based assay; assay type: functional; conditions: dose 16 µg/ml
Escherichia coli [28] = assay: Potentiation of rifampicin-induced antibacterial activity against Escherichia coli […] assessed as rifampicin MIC at 16 microg/ml in high concentration of Ca++ and Mg++ containing media by Mueller-Hinton broth based assay; assay type: functional; conditions: dose 16 µg/ml
Acinetobacter baumannii [29] = assay: Potentiation of rifampicin-induced antibacterial activity against Acinetobacter baumannii ATCC 17978 assessed as fold change in rifampicin MIC at 16 microg/ml in high concentration of Ca++ and Mg++ containing media by Mueller-Hinton broth based assay; assay type: functional; conditions: dose 16 µg/ml
Acinetobacter baumannii [30] = assay: Potentiation of rifampicin-induced antibacterial activity against Acinetobacter baumannii 92247 assessed as fold change in rifampicin MIC at 16 microg/ml in high concentration of Ca++ and Mg++ containing media by Mueller-Hinton broth based assay; assay type: functional; conditions: dose 16 µg/ml
Escherichia coli [31] = assay: Potentiation of rifampicin-induced antibacterial activity against Escherichia coli […] assessed as fold change in rifampicin MIC at 16 microg/ml in high concentration of Ca++ and Mg++ containing media by Mueller-Hinton broth based assay; assay type: functional; conditions: dose 16 µg/ml
[32] = Cytotoxicity against HEK293 cells assessed as cell viability at 9 uM relative to control; assay type: toxicity, cell-based; conditions: human, read-out: Activity
[33] = Cytotoxicity against human HepG2 cells assessed as cell viability at 9 uM relative to control; assay type: toxicity, cell-based; conditions: read-out: Activity

Q: For `CCCCCCCCO[C@@H]1O[C@H](CN)[C@H](N)[C@H](OCc2ccc3ccccc3c2)[C@H]1N`, which MIC (Acinetobacter baumannii [1]) is on record?
A: 16 µg/mL

Q: What about the MIC (Pseudomonas aeruginosa [2]) of the same compound?
A: 8 µg/mL

Q: And the MIC (Acinetobacter baumannii [3])?
A: 4 µg/mL

Q: What about the MIC (Escherichia coli [4]) of the same compound?
A: 2 µg/mL

Q: What about the “fold change (FC)” value (Pseudomonas aeruginosa [5]) of the same compound?
A: 2

Q: And the “fold change (FC)” value (Acinetobacter baumannii [6])?
A: 256

Q: What about the “fold change (FC)” value (Acinetobacter baumannii [7]) of the same compound?
A: 64

Q: What about the “fold change (FC)” value (Acinetobacter baumannii [8]) of the same compound?
A: 64

Q: And the “fold change (FC)” value (Acinetobacter baumannii [9])?
A: 64

Q: What about the “fold change (FC)” value (Escherichia coli [10]) of the same compound?
A: 64

Q: What about the “fold change (FC)” value (Escherichia coli [11]) of the same compound?
A: 64

Q: What about the “fold change (FC)” value (Escherichia coli [12]) of the same compound?
A: 64

Q: What about the MIC (Pseudomonas aeruginosa [13]) of the same compound?
A: > 128 µg/mL

Q: What about the MIC (Pseudomonas aeruginosa [14]) of the same compound?
A: > 128 µg/mL

Q: And the MIC (Acinetobacter baumannii [15])?
A: ≥ 64 µg/mL

Q: And the MIC (Escherichia coli [16])?
A: 64 µg/mL (≈ 149 µM)

Q: And the MIC (Escherichia coli [17])?
A: 64 µg/mL (≈ 149 µM)

Q: What about the MIC (Pseudomonas aeruginosa [18]) of the same compound?
A: 8 µg/mL

Q: What about the MIC (Acinetobacter baumannii [19]) of the same compound?
A: 4 µg/mL

Q: What about the MIC (Acinetobacter baumannii [20]) of the same compound?
A: 4 µg/mL

Q: And the MIC (Escherichia coli [21])?
A: 2 µg/mL

Q: And the MIC (Escherichia coli [22])?
A: 2 µg/mL

Q: What about the “fold change (FC)” value (Pseudomonas aeruginosa [23]) of the same compound?
A: 1

Q: And the “fold change (FC)” value (Acinetobacter baumannii [24])?
A: 1

Q: What about the “fold change (FC)” value (Acinetobacter baumannii [25]) of the same compound?
A: 2

Q: And the MIC (Acinetobacter baumannii [26])?
A: 16 µg/mL

Q: What about the MIC (Escherichia coli [27]) of the same compound?
A: 16 µg/mL

Q: What about the MIC (Escherichia coli [28]) of the same compound?
A: 16 µg/mL

Q: And the “fold change (FC)” value (Acinetobacter baumannii [29])?
A: 1

Q: What about the “fold change (FC)” value (Acinetobacter baumannii [30]) of the same compound?
A: 32

Q: And the “fold change (FC)” value (Escherichia coli [31])?
A: 8

Q: What about the viability at 9 µM [32] of the same compound?
A: 46.4%

Q: And the viability at 9 µM [33]?
A: 85%
